# In patent US10987429B2, “Inhibitor of ATP-dependent cellular reverse transporters and method for producing same” (AO “TATKHIMFARMPREPARATY”, priority 2016, dated 2021):
# Counter-ions that a name gives are not always drawn.
# Assays:
# Format in all cases: cell-based, human
# [1] = test system: MCF-7/Vin cells; assay: Microviscosity of plasma membranes, DPHT fluorescence polarization; conditions: OEP inhibitor 8.7, 87, 870 μg/ml, doxorubicin 1 μM, cholesterol 100 μg/ml, Triton X-100 0.05%, 1 hour
# Source text: (§1) A key physico-chemical characteristic of cell membranes that affects their physiological activity is microviscosity, a measure of lipid mobility in the bilayer, which plays an important role in membrane permeability and the functioning of membrane proteins. To assess the plasmalemma microviscosity, a fluorescent method is used, based on the use of a lipophilic indicator of diphenylhexatriene (DPHT), whose fluorescence depends on the cell membrane fluidity.
# (§2) Cell suspension with a density of 2×10^6 cells/ml was incubated with DPHT at a final concentration of 1 μM for 30 minutes. Next, aliquots (10 μl) of OEP inhibitor solutions were added to the cell suspension using a multichannel dispenser to a final concentration of 8.7; 87 and 870 μg/ml, as well as doxorubicin at a concentration of 1 μM and its composition with an OEP inhibitor (DOX 1 μM+OEP inhibitor 8.7 μg/ml; DOX 1 μM+OEP inhibitor 87 μg/ml). […] Immediately after introducing aliquots of samples, the fluorescence polarization of DPHT was detected for 1 hour with an interval of 10 minutes.
# [2] = test system: MCF-7 cells; assay: as above; conditions: OEP inhibitor 8.7, 87, 870 μg/ml, doxorubicin 1 μM, cholesterol 100 μg/ml, Triton X-100 0.05%, 1 hour
# Source text: as §1, §2
# [3] = test system: P-gp (ABCB1); assay: Immunoblotting of P-gp (ABCB1) expression in MCF-7 cells; conditions: 48 hours, doxorubicin 3 μM, OEP inhibitor 261 μg/ml, composition 3 μM: 261 μg/ml
# Experimental: MCF-7, MCF-7-ABCC1-DsRed (with over-expression of MRP-1), MCF-7-ABCC2-BFP (with over-expression of MRP-2), MCF-7-ABCB1-GFP (with P-gp over-expression) cells in concentrations of 3×10^4 cells/cm^2 were cultured in complete DMEM nutrient medium with either doxorubicin added to a final concentration of 3 μM; or an OEP inhibitor to a final concentration of 261 μg/ml; or doxorubicin-OEP inhibitor compositions to a final concentration of 3 μM: 261 μg/ml for 48 hours at 37° C. in the atmosphere of 5% CO2. An adapted and modified ABCAM protocol (http://www.abcam.com/ps/pdf/protocols/wb-beginner.pdf) was used to study proteins by immunoblotting (Western Blot). Monoclonal antibodies to ABCB1 (Cat. No. sc-13131, Santa Cruz) were used at a dilution of 1:200. Anti-mouse antibodies conjugated with HRP—(Cat. No ab6728, Abcam) at a dilution of 1:10,000 were used as secondary. Monoclonal antibodies to β-actin (Cat. No. mAbcam 8226, Abcam) were used at a dilution of 1:2000. The results of the analysis were visualized on ChemiDoc XRS+system (Bio-Rad).
compound,measurement,setting,value
"CC(C)CCC[C@@H](C)[C@H]1CC[C@H]2[C@@H]3CC=C4C[C@@H](O)CC[C@]4(C)[C@H]3CC[C@]12C [Cholesterol, cholesterol]",polarization of the fluorescence of DPHT (membrane microviscosity),[1],significantly increased
same,polarization of the fluorescence of DPHT (membrane microviscosity),[2],significantly increased
"COc1cccc2c1C(=O)c1c(O)c3c(c(O)c1C2=O)C[C@@](O)(C(=O)CO)C[C@@H]3O[C@H]1C[C@H](N)[C@H](O)[C@H](C)O1 [doxorubicin, Doxorubicin (DOX) hydrochloride]","active glycosylated 190 kDa form of ABCB1, immunoblotting",[3],increases the amount of the active form
same,polarization of the fluorescence of DPHT (membrane microviscosity),[1],did not significantly change
same,polarization of the fluorescence of DPHT (membrane microviscosity),[2],did not significantly change
Triton X-100,polarization of the fluorescence of DPHT (membrane microviscosity),[1],significant decrease
same,polarization of the fluorescence of DPHT (membrane microviscosity),[2],significant decrease
